ChEMBL document CHEMBL3507680, “University of Dundee, Gates Library screen for HepG2 cell viability”

Assay: Human HepG2 cell viability assay in 384 well format
Type: toxicity, cell-based
Design: dose 125 nL, time 70.5 hour; concentration not given beside the values
Details: HepG2 cells, read-out: Inhibition

| SMILES | cytotoxicity at 70.5 h [%] |
| --- | --- |
| O=C(NCCCN1CCOCC1)c1cc(-c2ccco2)[nH]n1 | -11.6 |
| Cc1csc(CNC(=O)NC2CCN(c3ncccn3)CC2)n1 | -11.3 |
| O=C(Nc1nncs1)NC1CCOc2ccccc21 (stereo unspecified) | 3.46 |
| O=C(Nc1nncs1)NC1CCc2ccccc21 (stereo unspecified) | -8.87 |
| Cc1cc(-c2nnn(CCC(N)=O)n2)ccc1F | -9.65 |
| O=C(NC1CC1)c1cc(NC(=O)N2CCCC(O)C2)ccc1Cl (stereo unspecified) | -7.86 |
| Cc1nn(C(C)C)c(C)c1NC(=O)c1ccccc1 | -0.962 |
| O=C(NCC(O)c1ccc(F)c(F)c1)c1cccnc1OCC(F)(F)F (stereo unspecified) | -8.69 |
| O=C(CCNC(=O)c1ccccc1N1CCOCC1)NC1CCCC1 | -1.96 |
| O=C(CN(Cc1ccccc1)CC1CCOCC1)Nc1nccs1 | -0.217 |
| CC1Cc2ccccc2N1Cc1occc1C(=O)OCC(N)=O (stereo unspecified) | 2.01 |
| O=C(CN(Cc1ccccc1)CC1CCOCC1)NC(=O)NC1CC1 | 11.8 |
| Cc1ccoc1-c1nnc(CNCC2CCCN2c2cccnn2)o1 (stereo unspecified) | -4.49 |
| COc1cc(C)sc1C(=O)N1CCC(Nc2cccnc2)CC1 | -5.15 |
| CC(C)c1ccc(-c2nnn(CCNS(C)(=O)=O)n2)cc1 | 3.94 |
| Cc1noc(C)c1CNC(=O)N1CCC(C(O)c2ccccc2)CC1 (stereo unspecified) | -6 |
| CC(=O)c1c(F)cccc1N1CCC(Cc2cccnc2)CC1 | 9.22 |
| CC(C)Cc1noc(CN2CCN(C(=O)c3cccc(F)c3)CC2)n1 | -3.6 |
| CC(=O)c1c(F)cccc1N1CCC(CS(N)(=O)=O)CC1 | -10.5 |
| CN(Cc1nnc(C2CC2)n1C)C1CCN(Cc2ccccc2F)C1 (stereo unspecified) | -2.35 |
| CN(C(=O)Cc1ccc2c(c1)OCCO2)C1CCCC1 | 19.8 |
| CN(CCC#N)C(=O)CCOc1cccc(F)c1 | 13 |

| SMILES | cytotoxicity at 70.5 h [%] |
| --- | --- |
| O=C(NC1CCCN(c2ncccn2)C1)c1ccoc1 (stereo unspecified) | -1.17 |
| Cc1ccc(CN2CCC3(CC(C(=O)NC4CCC4)=NO3)C2)o1 (stereo unspecified) | -14.5 |
| O=C(NCCN1CCOCC1)C1=NOC2(CCN(Cc3nccs3)C2)C1 (stereo unspecified) | -17.4 |
| O=C(NC1CCC1)C1=NOC2(CCN(Cc3ccccc3)C2)C1 (stereo unspecified) | -10.6 |
| COCC(=O)N1CC[C@@H](N2CCOCC2)[C@@H]1Cc1cccnc1 | -12.2 |
| Cc1noc(C)c1C(=O)N1C[C@@H]2C[C@@H](c3ccncn3)O[C@@H]2C1 | -3.05 |
| Cc1oncc1C(=O)N1CC[C@H]2C[C@H](c3ccncn3)O[C@@H]2C1 | 7.58 |
| O=C(c1c2c(N3CCCC3)ncnc2n2ccccc12)N1CCCC1 | -11 |
| CC(=O)N1CCC2(CC1)CCN(C(=O)c1cccc(C(F)(F)F)c1)C2 | -13.6 |
| CC(=O)N1CCC2(CCN(C(=O)c3ccc(Cl)c(C(F)(F)F)c3)C2)C1 (stereo unspecified) | -11 |
| Cc1ncoc1C(=O)N1CCn2c(COc3cccnc3)cnc2C1C (stereo unspecified) | 17.8 |
| O=C(NCC1Cn2nnc(-c3ccsc3)c2CO1)c1ccc[nH]1 (stereo unspecified) | 1.74 |
| O=C(NCC1Cn2nnc(-c3ccncc3)c2CO1)c1ccc[nH]1 (stereo unspecified) | -5.04 |
| N#CCCNC(=O)c1ccn(-c2ccc3ccccn23)n1 | -7.72 |
| Cc1nc(CN2CCO[C@@H]3CN(C(=O)CN(C)C)CC[C@@H]3C2)cs1 | -13.1 |
| CN(Cc1ccco1)[C@@H]1CN(Cc2ccoc2)C[C@@H]2CCCO[C@@H]21 | -7.61 |
| O=C(NCC1Cn2nnc(-c3ccccc3)c2CO1)c1ccc[nH]1 (stereo unspecified) | 1.41 |
| CC1c2ncc(COCC3CC3)n2CCN1C(=O)c1ccnnc1 (stereo unspecified) | -5.45 |
| Cc1nnn2c1COC(CNC(=O)c1cccn1C)C2 (stereo unspecified) | -14.1 |
| CC1c2ncc(COCC3CCOCC3)n2CCN1C(=O)c1ccco1 (stereo unspecified) | -10.5 |
| COCC1CN(C(=O)Cc2ccccn2)Cc2cn(CC3CC3)nc21 (stereo unspecified) | -14.6 |
| CCn1cc2c(n1)C(COC)CN(C(=O)CCOc1ccccc1)C2 (stereo unspecified) | -12.3 |

| SMILES | cytotoxicity at 70.5 h [%] |
| --- | --- |
| CN(C)S(=O)(=O)N1C[C@H]2C[C@H](C(=O)NCc3ccccc3)[C@@H](C1)O2 | -12.2 |
| N#Cc1cccc(N2CC3(CCN(C(=O)c4ccnnc4)C3)CC2=O)c1 (stereo unspecified) | -10.5 |
| CN(C)CCO[C@H]1CN(C(=O)c2cscn2)[C@@H]2COC[C@H]12 | -14.3 |
| O=C(c1ccnnc1)N1C[C@H](OCC2CC2)[C@H]2COC[C@H]21 | -13.5 |
| CN(C)CCO[C@H]1CN(C(=O)c2ccc[nH]2)[C@@H]2COC[C@H]12 | -11.1 |
| CN(C)C(=O)N1CCC2(CC(=O)N(c3cccc(C#N)c3)C2)C1 (stereo unspecified) | -5.09 |
| CCO[C@H]1CN(C(=O)c2ccnnc2)[C@@H]2COC[C@H]12 | -10.7 |
| O=C(c1ncccn1)N1C[C@@H]2CN(Cc3cccnc3)CCO[C@@H]2C1 | -5.35 |
| CC(C)NC(=O)[C@H]1C[C@@H]2CN(C(=O)NCc3ccccc3)C[C@H]1O2 | -7.91 |
| CCOCC1CC2(CCN(C(=O)c3cscn3)CC2)CO1 (stereo unspecified) | -9.28 |
| CCn1cc2c(n1)C(COC)CN(C(=O)c1ccccn1)C2 (stereo unspecified) | -9.71 |
| O=C(c1ccnnc1)N1CCc2onc(Cn3cccn3)c2C1 | -3.08 |
| O=C(c1ccco1)N1CCc2onc(Cn3cccn3)c2C1 | -7.44 |
| CN(C)CCOCC1CN(CCN(C)C)Cc2ccnn2C1 (stereo unspecified) | -10.7 |
| COc1ccc(C(=O)N2C[C@@H](O)[C@H](NCc3ncccc3C)C2)cc1 | -8.03 |
| CNCCCNC1CCN(c2ccc(-n3ccnc3)cc2)CC1 | -7.26 |
| CC(C)Cc1cc(C(=O)NCC2CCCN(Cc3ccco3)C2)on1 (stereo unspecified) | -10.7 |
| Cc1nn(C)c2nc(-c3ccccn3)nc(NCCC3CCCN3C)c12 (stereo unspecified) | 1.37 |
| Cc1ncsc1CN1CC2(CCCC2)CC1=O | 0.928 |
| COc1ccc2nc(O)c(CN(C)Cc3ncc[nH]3)cc2c1 | 1.48 |
| COCCc1noc(C2CCCN(c3nc(N)nc4c3CCCC4)C2)n1 (stereo unspecified) | 3.87 |
| CNc1ncc(CN(C)C(=O)CCc2[nH]nc3c2CCCC3)cn1 | -11.5 |

| SMILES | cytotoxicity at 70.5 h [%] |
| --- | --- |
| Cc1cccnc1CC(C)Nc1ncc(C)c(N(C)C)n1 (stereo unspecified) | 2.64 |
| CCCc1nccn1-c1ccc(C(C)O)cc1 (stereo unspecified) | -5.9 |
| O=C(NCC1CCCCO1)c1cc(Cn2cnc3ccccc32)[nH]n1 (stereo unspecified) | -6.38 |
| O=C(NCCSc1ccccc1)[C@H]1CNC[C@@H](C(=O)N2CCOCC2)C1 | -7.93 |
| Nc1ncccc1CN1C[C@H]2OC(=O)N(Cc3ccccn3)[C@H]2C1 | -3.5 |
| Clc1ccccc1C1(c2ccnc(C3CC3)n2)CCNCC1 | 48.5 |
| COc1ccc(C(=O)C2CCCN(Cc3cnn(C)c3C)C2)c(OC)c1 (stereo unspecified) | -20.2 |
| O=C(O)C1(n2ccnc2)CCN(Cc2ccc3occc3c2)CC1 | -5.96 |
| Cc1cc(CNC(=O)c2cc(COc3cncc(Cl)c3)on2)n[nH]1 | 16 |
| O=C(NCc1cccc(Cl)c1)C1=NOC2(CCNC2)C1 (stereo unspecified) | -6.34 |
| O=C(c1cccs1)N1CC[C@@H](N2CCOCC2)[C@@H]1Cc1ccccc1 | -15.7 |
| O=C1COC2(COCCN(Cc3ccsc3)C2)CN1c1ccoc1 (stereo unspecified) | 32.5 |
| O=C1CC2(CCN(Cc3ccco3)C2)CN1c1ccc2c(c1)OCO2 (stereo unspecified) | 11.6 |
| CN(C)S(=O)(=O)N1CC[C@]2(C[C@@H](Oc3ncccc3F)CO2)C1 | 13.4 |
| O=C(NCc1ccco1)[C@H]1CC[C@@H]2[C@@H](CCN2c2ncccn2)O1 | 12.4 |
| Cc1ccc(N2CC[C@H]3O[C@H](C(=O)NCc4ccco4)CC[C@H]32)nn1 | -18.3 |
| CN(C)S(=O)(=O)N1C[C@@H](OCc2cccnc2)[C@H]2OCCC[C@H]21 | 12.6 |
| CCCS(=O)(=O)N1C[C@@H](OCc2ccncc2)[C@H]2OCCC[C@H]21 | -7.43 |
| COCCN1CCc2c(cnc(-c3ccccc3)c2C(=O)O)C1 | -9.19 |
| Cn1nccc1C(=O)N1CCC2(CC1)COC(COc1ccccn1)C2 (stereo unspecified) | -11.2 |
| CN(C)CCNC(=O)[C@H]1C[C@@H]2CN(C(=O)NCc3ccccc3)C[C@H]1O2 | -14.9 |
| CC(C)N1CCc2nnc(COc3cncnc3)n2CC1 | -9.44 |

| SMILES | cytotoxicity at 70.5 h [%] |
| --- | --- |
| CNC(=O)N1C[C@H]2C[C@H](C(=O)NCc3cccnc3)[C@@H](C1)O2 | -4.91 |
| O=C(c1ccco1)N1C[C@H]2CCCN(CC3CC3)[C@H]2C1 | -16.9 |
| Cc1cccc(CN2CCC[C@@H]3CN(C(=O)c4ccco4)C[C@@H]32)n1 | -7.63 |
| Cn1cccc1C(=O)N1CCC2(CCCN2Cc2ccccc2)CC1 | -9.97 |
| O=C(c1ccco1)N1C[C@H]2CCCN(Cc3ccoc3)[C@H]2C1 | -9.66 |
| Cc1ccc(CN2C[C@@H]3[C@@H](C2)OCC(=O)N3Cc2ccncc2)s1 | 10.5 |
| O=C1CO[C@@H]2CN(Cc3nccs3)C[C@H]2N1Cc1ccncc1 | -11.4 |
| CN(Cc1ccco1)[C@@H]1CN(Cc2cccs2)C[C@@H]2CCCO[C@@H]21 | -6.25 |
| CCOCC1CN(c2ccncn2)Cc2cnn(CC3CC3)c21 (stereo unspecified) | -7.56 |
| c1ccc(OCc2nnc3n2CCN(CC2CC2)C3)nc1 | -13.3 |
| Cc1nc(CN2CCO[C@@H]3CN(Cc4nccs4)C[C@@H]3C2)cs1 | -1.91 |
| Cc1ccc(CN2C[C@@H]3CCCO[C@@H]3[C@H](N(C)Cc3ccco3)C2)o1 | -9.18 |
| O=C(O)c1c(-c2cccnc2)ncc2c1CCN(Cc1cccnc1)C2 | -5.73 |
| Cc1cnc(C(=O)N2C[C@H]3CN(Cc4cccnc4)C[C@H]3C2)cn1 | 6.07 |
| c1cncc(CN2CCc3c(nnn3CC3CC3)C2COCC2CC2)c1 (stereo unspecified) | -14.9 |
| O=C(NC1CC1)[C@H]1C[C@H]2OCC[C@H]2N(Cc2cccnc2)C1 | -7.68 |
| CN(Cc1ccncc1)C1COC2(CCN(Cc3ccsc3)CC2)C1 (stereo unspecified) | -15.1 |
| CN(Cc1ccco1)[C@@H]1CN(Cc2ccncc2)C[C@@H]2CCCO[C@@H]21 | -13.9 |
